Results: patent US20240376084A1, “INHIBITORS OF ALPHA-HEMOLYSIN OF STAPHYLOCOCCUS AUREUS” (Helmholtz-Zentrum Fur Infektionsforschung GmbH, priority 2021, published 2024)

How the values were obtained:
[1] = target: hemolysin alpha from Staphylococcus aureus (Staphylococcus aureus, UniProt P09616); test: cell-based
[2] = target: S. aureus Alpha hemolysin (Staphylococcus aureus, UniProt P09616); test: cell-based
Chain of S. aureus Alpha hemolysin (P09616 27-319 limits assumed): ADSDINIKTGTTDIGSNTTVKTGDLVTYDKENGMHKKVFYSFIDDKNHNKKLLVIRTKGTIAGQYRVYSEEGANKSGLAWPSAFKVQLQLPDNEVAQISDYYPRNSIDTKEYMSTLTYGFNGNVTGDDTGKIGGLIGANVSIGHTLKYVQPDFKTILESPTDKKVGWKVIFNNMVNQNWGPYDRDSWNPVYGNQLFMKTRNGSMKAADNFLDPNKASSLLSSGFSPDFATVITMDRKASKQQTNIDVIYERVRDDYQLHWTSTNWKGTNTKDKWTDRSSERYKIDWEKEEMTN

Chain of hemolysin alpha from Staphylococcus aureus (P09616 27-319 limits assumed): as above

Structure (SMILES) | EC50 [1] [nM] | EC50 ([2]; A549-LDH Assay activity) [nM] | IC50 [1] [nM] | EC50 ([2]; LDH Assay EC50) [nM]
CC(C)=Cc1ccc(NS(=O)(=O)c2cc3[nH]c(=O)c(=O)[nH]c3cc2C)cc1Cl [Compound 296, N-[3-chloro-4-(2-methylprop-1-enyl)phenyl]-7-methyl-2,3-dioxo-1,4-dihydroquinoxaline-6-sulfonamide] | 30 to 100 | 30 to 100 | – | –
Cc1ccc(-c2ccc(NS(=O)(=O)c3cc4[nH]c(=O)c(=O)[nH]c4cc3C)cc2Cl)cc1 [Compound 38, N-(2-chloro-4′-methyl-[1,1′-biphenyl]-4-yl)-7-methyl-2,3-dioxo-1,2,3,4-tetrahydroquinoxaline-6-sulfonamide] | – | 100 to 1000 | 30 to 100 | –
Cc1cc2[nH]c(=O)c(=O)[nH]c2cc1S(=O)(=O)Nc1ccc(-c2ccc(OC(F)(F)F)cc2)c(Cl)c1 [Compound 277, N-[3-chloro-4-[4-(trifluoromethoxy)phenyl]phenyl]-7-methyl-2,3-dioxo-1,4-dihydroquinoxaline-6-sulfonamide] | 100 to 1000 | 100 to 1000 | – | –
Cc1cc2[nH]c(=O)c(=O)[nH]c2cc1S(=O)(=O)Nc1ccc(-c2ccc(F)c(C#N)c2)c(Cl)c1 [Compound 393, N-[3-chloro-4-(3-cyano-4-fluoro-phenyl)phenyl]-7-methyl-2,3-dioxo-1,4-dihydroquinoxaline-6-sulfonamide] | 30 to 100 | 100 to 1000 | – | –
Cc1cc2[nH]c(=O)c(=O)[nH]c2cc1S(=O)(=O)Nc1ccc(-c2ccc(C#N)nc2)c(Cl)c1 [Compound 254, N-[3-chloro-4-(6-cyano-3-pyridyl)phenyl]-7-methyl-2,3-dioxo-1,4-dihydroquinoxaline-6-sulfonamide] | 100 to 1000 | 100 to 1000 | – | –
Cc1cc2[nH]c(=O)c(=O)[nH]c2cc1S(=O)(=O)Nc1ccc(C(C)(C)C)cc1 [Compound 83, N-(4-(tert-butyl)phenyl)-7-methyl-2,3-dioxo-1,2,3,4-tetrahydroquinoxaline-6-sulfonamide] | – | 30 to 100 | 100 to 1000 | –
Cc1cn2ccc(-c3ccc(NS(=O)(=O)c4cc5[nH]c(=O)c(=O)[nH]c5cc4C)cc3Cl)cc2n1 [Compound 338, N-[3-chloro-4-(2-methylimidazo[1,2-a]pyridin-7-yl)phenyl]-7-methyl-2,3-dioxo-1,4-dihydroquinoxaline-6-sulfonamide] | < 30 | 30 to 100 | – | –
Cc1cc2[nH]c(=O)c(=O)[nH]c2cc1S(=O)(=O)Nc1ccc(-c2ccc(NC(=O)N(C)C)cc2)c(Cl)c1 [Compound 332, 3-[4-[2-chloro-4-[(7-methyl-2,3-dioxo-1,4-dihydroquinoxalin-6-yl)sulfonylamino]phenyl]phenyl]-1,1-dimethyl-urea] | 100 to 1000 | 100 to 1000 | – | –
Cc1cc2[nH]c(=O)c(=O)[nH]c2cc1S(=O)(=O)Nc1ccc(-c2cccc(C(F)(F)F)c2)c(Cl)c1 [Compound 316, N-[3-chloro-4-[3-(trifluoromethyl)phenyl]phenyl]-7-methyl-2,3-dioxo-1,4-dihydroquinoxaline-6-sulfonamide] | 30 to 100 | 1000 to 6000 | – | –
Cc1nc2cc(-c3ccc(NS(=O)(=O)c4cc5[nH]c(=O)c(=O)[nH]c5cc4C)cc3Cl)ccc2o1 [Compound 272, N-[3-chloro-4-(2-methyl-1,3-benzoxazol-5-yl)phenyl]-7-methyl-2,3-dioxo-1,4-dihydroquinoxaline-6-sulfonamide] | < 30 | < 30 | – | –
Cc1cc2[nH]c(=O)c(=O)[nH]c2cc1S(=O)(=O)Nc1ccc(-c2cc(F)c3c(c2)NCCO3)c(Cl)c1 [Compound 357, N-[3-chloro-4-(8-fluoro-3,4-dihydro-2H-1,4-benzoxazin-6-yl)phenyl]-7-methyl-2,3-dioxo-1,4-dihydroquinoxaline-6-sulfonamide] | < 30 | 100 to 1000 | – | –
Cc1cc2[nH]c(=O)c(=O)[nH]c2cc1S(=O)(=O)Nc1ccc(N2CCCC2)cc1 [Compound 137, 7-methyl-2,3-dioxo-N-(4-(pyrrolidin-1-yl)phenyl)-1,2,3,4-tetrahydroquinoxaline-6-sulfonamide] | – | 30 to 100 | 100 to 1000 | –
Cc1ccccc1-c1ccc(NS(=O)(=O)c2cc3[nH]c(=O)c(=O)[nH]c3cc2C)cc1Cl [Compound 90, N-(2-chloro-2′-methyl-[1,1′-biphenyl]-4-yl)-7-methyl-2,3-dioxo-1,2,3,4-tetrahydroquinoxaline-6-sulfonamide] | – | 100 to 1000 | 100 to 1000 | –
CC(C)(C)c1ccc(NS(=O)(=O)c2cc3[nH]c(=O)c(=O)[nH]c3cc2Cl)cc1 [Compound 173, N-(4-(tert-butyl)phenyl)-7-chloro-2,3-dioxo-1,2,3,4-tetrahydroquinoxaline-6-sulfonamide] | – | 30 to 100 | 100 to 1000 | –
Cc1cc2[nH]c(=O)c(=O)[nH]c2cc1S(=O)(=O)Nc1ccc(-n2ccnn2)c(Cl)c1 [Compound 264, N-[3-chloro-4-(triazol-1-yl)phenyl]-7-methyl-2,3-dioxo-1,4-dihydroquinoxaline-6-sulfonamide] | 100 to 1000 | 100 to 1000 | – | –
Cc1cc2[nH]c(=O)c(=O)[nH]c2cc1S(=O)(=O)Nc1ccc(C2CCOCC2)cc1 [Compound 304, 7-methyl-2,3-dioxo-N-(4-tetrahydropyran-4-ylphenyl)-1,4-dihydroquinoxaline-6-sulfonamide] | 1000 to 3500 | 100 to 1000 | – | –

Structure (SMILES) | EC50 [1] [nM] | EC50 ([2]; A549-LDH Assay activity) [nM] | IC50 [1] [nM] | EC50 ([2]; LDH Assay EC50) [nM]
Cc1cc2[nH]c(=O)c(=O)[nH]c2cc1S(=O)(=O)Nc1ccc(-c2cn(C)c3ccccc23)c(Cl)c1 [Compound 340, N-[3-chloro-4-(1-methylindol-3-yl)phenyl]-7-methyl-2,3-dioxo-1,4-dihydroquinoxaline-6-sulfonamide] | 100 to 1000 | 1000 to 6000 | – | –
Cc1cc2[nH]c(=O)c(=O)[nH]c2cc1S(=O)(=O)Nc1ccc(OC(F)(F)F)c(Br)c1 [Compound 322, N-[3-bromo-4-(trifluoromethoxy)phenyl]-7-methyl-2,3-dioxo-1,4-dihydroquinoxaline-6-sulfonamide] | 30 to 100 | 30 to 100 | – | –
O=c1[nH]c2cc(Cl)c(S(=O)(=O)Nc3ccc(C4CC4)cc3)cc2[nH]c1=O [Compound 85, 7-chloro-N-(4-cyclopropylphenyl)-2,3-dioxo-1,2,3,4-tetrahydroquinoxaline-6-sulfonamide] | – | 30 to 100 | 100 to 1000 | –
CCc1ccc(NS(=O)(=O)c2cc3[nH]c(=O)c(=O)[nH]c3cc2C)cc1 [Compound 92, N-(4-ethylphenyl)-7-methyl-2,3-dioxo-1,2,3,4-tetrahydroquinoxaline-6-sulfonamide] | – | < 30 | < 30 | –
Cc1cc2[nH]c(=O)c(=O)[nH]c2cc1S(=O)(=O)Nc1ccc(C2CC2)cc1 [drawing 470 (R^2 = CH3)] | 63 | – | – | 18
Cc1cc2[nH]c(=O)c(=O)[nH]c2cc1S(=O)(=O)Nc1ccc(-c2ccc3cc[nH]c3c2)c(Br)c1 [Compound 374, N-[3-bromo-4-(1H-indol-6-yl)phenyl]-7-methyl-2,3-dioxo-1,4-dihydroquinoxaline-6-sulfonamide] | < 30 | < 30 | – | –
O=c1[nH]c2cc(Cl)c(S(=O)(=O)Nc3ccc(-c4ccoc4)c(Cl)c3)cc2[nH]c1=O [Compound 44, 7-chloro-N-(3-chloro-4-(furan-3-yl)phenyl)-2,3-dioxo-1,2,3,4-tetrahydroquinoxaline-6-sulfonamide] | – | 100 to 1000 | 30 to 100 | –
O=c1[nH]c2cc(C(F)F)c(S(=O)(=O)Nc3ccc(OC(F)(F)F)cc3)cc2[nH]c1=O [Compound 218, 7-(difluoromethyl)-2,3-dioxo-N-(4-(trifluoromethoxy)phenyl)-1,2,3,4-tetrahydroquinoxaline-6-sulfonamide] | 100 to 1000 | 100 to 1000 | – | –
Cc1cc(C)cc(-c2ccc(NS(=O)(=O)c3cc4[nH]c(=O)c(=O)[nH]c4cc3C)cc2Cl)c1 [Compound 248, N-[3-chloro-4-(3,5-dimethylphenyl)phenyl]-7-methyl-2,3-dioxo-1,4-dihydroquinoxaline-6-sulfonamide] | 100 to 1000 | 100 to 1000 | – | –
C#Cc1cc(NS(=O)(=O)c2cc3[nH]c(=O)c(=O)[nH]c3cc2C)ccc1-c1ccccc1 [Compound 252, N-(3-ethynyl-4-phenyl-phenyl)-7-methyl-2,3-dioxo-1,4-dihydroquinoxaline-6-sulfonamide] | < 30 | 30 to 100 | – | –
Cc1cc2[nH]c(=O)c(=O)[nH]c2cc1S(=O)(=O)Nc1ccc2c(c1)B(O)OC2 [Compound 388, N-(1-hydroxy-3H-2,1-benzoxaborol-6-yl)-7-methyl-2,3-dioxo-1,4-dihydroquinoxaline-6-sulfonamide] | 100 to 1000 | 1000 to 6000 | – | –
Cc1cc(NS(=O)(=O)c2cc3[nH]c(=O)c(=O)[nH]c3cc2Cl)ccc1Br [Compound 141, N-(4-bromo-3-methylphenyl)-7-chloro-2,3-dioxo-1,2,3,4-tetrahydroquinoxaline-6-sulfonamide] | – | 100 to 1000 | 100 to 1000 | –
Cc1cc2[nH]c(=O)c(=O)[nH]c2cc1S(=O)(=O)Nc1ccc(-c2cccc(N3CCN(C)CC3)c2)c(Cl)c1 [Compound 330, N-[3-chloro-4-[3-(4-methylpiperazin-1-yl)phenyl]phenyl]-7-methyl-2,3-dioxo-1,4-dihydroquinoxaline-6-sulfonamide] | 100 to 1000 | 100 to 1000 | – | –
Cc1cc2[nH]c(=O)c(=O)[nH]c2cc1S(=O)(=O)Nc1ccc(-c2cccc(S(=O)(=O)N(C)C)c2)c(Cl)c1 [Compound 335, N-[3-chloro-4-[3-(dimethylsulfamoyl)phenyl]phenyl]-7-methyl-2,3-dioxo-1,4-dihydroquinoxaline-6-sulfonamide] | 100 to 1000 | 1000 to 6000 | – | –
O=c1[nH]c2cc(Cl)c(S(=O)(=O)Nc3ccc(-c4cccnc4)c(Cl)c3)cc2[nH]c1=O [Compound 48, 7-chloro-N-(3-chloro-4-(pyridin-3-yl)phenyl)-2,3-dioxo-1,2,3,4-tetrahydroquinoxaline-6-sulfonamide] | – | 1000 to 6000 | 30 to 100 | –
Cc1cc2[nH]c(=O)c(=O)[nH]c2cc1S(=O)(=O)Nc1cc(C)c(-c2cccc(Cl)c2)c(C)c1 [Compound 57, N-(3′-chloro-2,6-dimethyl-[1,1′-biphenyl]-4-yl)-7-methyl-2,3-dioxo-1,2,3,4-tetrahydroquinoxaline-6-sulfonamide] | – | 30 to 100 | 30 to 100 | –
